Laboratory results taken from patent US5053070A, “Pyrimidine derivatives, preparation processes thereof, herbicide containing the same, and herbicidal compositions containing the same along with other active ingredient” (Mitsui Toatsu Chemicals, Incorporated, priority 1988, dated 1991).

Experiments:
rice = experiment: Treatment of soil under submerged condition, pre-emergence (Test 4), injury; format: in vivo; conditions: 30 g ai/a granule, 30 days later
Method: 1/5000-are Wagner pots were filled with soil. Seeds or tubers of barnyardgrass, Monochoria vaginalis, bulrush, Sagittaria pygmaea, Cyperus seroylnus and Eleocharis kuroguwai were seeded or planted under submerged condition. Two pairs of rice seedlings (2-3 leaf stage), which had been reared in advance, were transplanted to each pot and were allowed to germinate in a green house. Each pair consisted of two rice seedlings. One day later (before emergence of weeds), each pot was treated with a granule which had been prepared by processing a predetermined amount of the test composition in accordance with a similar method to the method described in Formulation Example 9. The state of emergence of weeds and the state of injury of rice were observed 30 days later.
In the table, the degrees of damages of the test plants and the degrees of injury of rice are shown in a similar manner to Example 2.

redroot pigweed [1] = experiment: Upland foliar application test (Test 3); format: in vivo; conditions: 30 g ai/a, foliar spray at 2-3 leaves, 30th day
Method: (§1) Resin-made 1/10000-are pots were filled with the soil of an upland field. Redroot pigweed, common lambsquarters, foxtail meadow, johnsongrass, barnyardgrass, green foxtail, large crabgrass, soybean, peanut and cotton were separately seeded and were allowed to germinate in a green house. When each plant grew to the stage of 2-3 leaves, an emulsion formulated from a predetermined amount of each test compound in a similar manner to the method described in Formulation Example 11 was diluted with water to a predetermined dilution rate and then sprayed at an application rate equal to 5 l per are onto the foliage of each plant by means of a pressure-operated ULV (ultra low volume) sprayer. Influence to the crops and weeds were observed on the 30th day after the spray of the herbicides. The results are shown in Table 4 in which the degree of damages of each test plant and the degree of injury to each crop are shown in a similar manner to Test 2.

johnsongrass [2] = experiment: Upland foliar application test (Test 3); format: in vivo; conditions: 30 g ai/a, foliar spray at 2-3 leaves, 30th day
Method: as §1

green foxtail [3] = experiment: Upland foliar application test (Test 3); format: in vivo; conditions: 30 g ai/a, foliar spray at 2-3 leaves, 30th day
Method: as §1

barnyardgrass [4] = experiment: Upland foliar application test (Test 3); format: in vivo; conditions: 30 g ai/a, foliar spray at 2-3 leaves, 30th day
Method: as §1

common lambsquarters [5] = experiment: Upland foliar application test (Test 3); format: in vivo; conditions: 30 g ai/a, foliar spray at 2-3 leaves, 30th day
Method: as §1

foxtail meadow [6] = experiment: Upland foliar application test (Test 3); format: in vivo; conditions: 30 g ai/a, foliar spray at 2-3 leaves, 30th day
Method: as §1

large crabgrass [7] = experiment: Upland foliar application test (Test 3); format: in vivo; conditions: 30 g ai/a, foliar spray at 2-3 leaves, 30th day
Method: as §1

[8] = test system: ALS (acetolactate syntase); experiment: ALS enzyme assay (Test 1); format: biochemical, pea; conditions: 1,000 ppm (0.5 mg/0.5 ml)
Method: To determine the selectivity in enzyme level between crops and weeds, and ALS enzyme assay was conducted using pea as a representative of broadleaf crops and barnyardgrass as a representative of narrowleaf weeds.
After seeds of pea and barnyardgrass were allowed to germinate at 25° C. for 8-14 days in a dark place, partially-purified suspensions (Suspensions A) of acetolactate syntase were separately obtained from seedlings in accordance with the method described in the literature, Plant Physiology, 75, 827-831.
In a test tube, 0.5 mg of one of test compounds was weighed, followed by the addition of 0.15 ml of a 20 mM K2 HPO4 solution and 0.25 ml of a reaction substrate medium which consisted of 40 mM of K2 HPO4, 40 mM of sodium pyruvate, 1 mM of TPP, 1 mM of MgCl2 and 20 μM of FAD so that 0.4 ml of a reaction solution (Solution B) was prepared. Added to 0.4 ml of Solution B was 0.1 ml of suspension A. After the resultant mixture was shaken for 1 hour in a thermostat water bath controlled at 30° C., 50 μl of 6N sulfuric acid were added to terminate the reaction.
Next, the reaction-terminated liquid mixture was transferred into a thermostat water bath controlled at 60° C. and was heated for 15 minutes. Thereafter, 0.5 ml of a 0.5% creatine solution and 0.5 ml of a 5% alkaline α-naphthol solution were added, and the resultant mixture was maintained at 60° C. for 15 minutes. As a result, the test solution developed a pink-red color. After the above operation, the absorbance of the test solution at 525 nm was measured by a spectrophotometer (Absorbance 1 of Test Compound).
On the other hand, the absorbance (Absorbance 2 of Blank) of a solution obtained by subjecting a portion of Solution B, said portion being free of the test compound, to the above operation and the absorbance (Absorbance 3 of sulfuric acid terminated) of another solution obtained by subjecting another portion of Solution B, said portion containing 50 μl of 6N sulfuric acid as a test compound, were measured at the same time. Based on the values of the respective measurements, the enzyme assay at 1,000 ppm (0.5 mg/0.5 ml) of each compound was determined. [formula]

redroot pigweed [9] = experiment: Upland soil application test (Test 2); format: in vivo; conditions: 30 g ai/a, soil spray before emergence, 30 days later
Method: (§2) Resin-made 1/2500-are pots were filled with the soil of an upland field. After they were fertilized, soybean, peanut and cotton were seeded and 2-3 cm soil covering was applied. Seeds of redroot pigweed, common lambsquarters, barnyardgrass, green foxtail, large crabgrass, foxtail meadow and johnsongrass had been uniformly mixed with the soil. They were allowed to germinate in a green house. One day later (before emergence of weeds), a wettable powder prepared from a predetermined amount of each test compound in a similar manner to the method described in Formulation Example 1 was diluted with water and then sprayed evenly at an application rate equal to 10 l per are onto the surface of the soil by means of a pressure-operated ULV (ultra low volume) sprayer. Influence to the crops and weeds were observed 30 days later. The results are shown in Table 3, in which the degree of damages of each test plant and the degree of injury to each crop were determined by comparing the air-dried weights of the test plant and crop with those of the corresponding plant and crop in untreated pots and are shown in accordance with the following standard: […]

johnsongrass [10] = experiment: Upland soil application test (Test 2); format: in vivo; conditions: 30 g ai/a, soil spray before emergence, 30 days later
Method: as §2

green foxtail [11] = experiment: Upland soil application test (Test 2); format: in vivo; conditions: 30 g ai/a, soil spray before emergence, 30 days later
Method: as §2

barnyardgrass [12] = experiment: Upland soil application test (Test 2); format: in vivo; conditions: 30 g ai/a, soil spray before emergence, 30 days later
Method: as §2

common lambsquarters [13] = experiment: Upland soil application test (Test 2); format: in vivo; conditions: 30 g ai/a, soil spray before emergence, 30 days later
Method: as §2

foxtail meadow [14] = experiment: Upland soil application test (Test 2); format: in vivo; conditions: 30 g ai/a, soil spray before emergence, 30 days later
Method: as §2

large crabgrass [15] = experiment: Upland soil application test (Test 2); format: in vivo; conditions: 30 g ai/a, soil spray before emergence, 30 days later
Method: as §2

| Compound | Inhibitory activity (%) Pea [8] | Injury Rice (rice) | Herbicidal effects Redroot pigweed (redroot pigweed [1]) | Herbicidal effects Johnsongrass (johnsongrass [2]) | Herbicidal effects Green foxtail (green foxtail [3]) | Herbicidal effects Barnyardgrass (barnyardgrass [4]) | Herbicidal effects Common lambsquarters (common lambsquarters [5]) | Herbicidal effects Foxtail meadow (foxtail meadow [6]) | Herbicidal effects Large crabgrass (large crabgrass [7]) | Herbicidal effects Redroot pigweed (redroot pigweed [9]) | Herbicidal effects Johnsongrass (johnsongrass [10]) | Herbicidal effects Green foxtail (green foxtail [11]) | Herbicidal effects Barnyardgrass (barnyardgrass [12]) | Herbicidal effects Common lambsquarters (common lambsquarters [13]) | Herbicidal effects Foxtail meadow (foxtail meadow [14]) | Herbicidal effects Large crabgrass (large crabgrass [15]) |
| --- | --- | --- | --- | --- | --- | --- | --- | --- | --- | --- | --- | --- | --- | --- | --- | --- |
| COc1cc(OC)nc(Oc2ccccc2C=NOCC=C(C)C)n1 [Compound No. 7] | 0% | 1 (71-90 (Slight damages)) | 5 (0-5 (Death)) | 5 (0-5 (Death)) | 5 (0-5 (Death)) | 5 (0-5 (Death)) | 4 (6-10 (Severe damages)) | 5 (0-5 (Death)) | 5 (0-5 (Death)) | 4 (6-10 (Severe damages)) | 5 (0-5 (Death)) | 5 (0-5 (Death)) | 5 (0-5 (Death)) | 4 (6-10 (Severe damages)) | 5 (0-5 (Death)) | 5 (0-5 (Death)) |
| COc1cc(OC)nc(Oc2ccccc2C=NOCC=Cc2ccccc2)n1 [Compound No. 9] | 11% | 1 (71-90 (Slight damages)) | 5 (0-5 (Death)) | 5 (0-5 (Death)) | 5 (0-5 (Death)) | 5 (0-5 (Death)) | 4 (6-10 (Severe damages)) | 5 (0-5 (Death)) | 5 (0-5 (Death)) | 5 (0-5 (Death)) | 5 (0-5 (Death)) | 5 (0-5 (Death)) | 5 (0-5 (Death)) | 4 (6-10 (Severe damages)) | 5 (0-5 (Death)) | 5 (0-5 (Death)) |
| C#CCON=Cc1ccccc1Oc1nc(OC)cc(OC)n1 [Compound No. 13, 0-(2-propynyl)-2-(4,6-dimethoxy-2-pyrimidinyloxy)benzaldoxime] | 0% | 1 (71-90 (Slight damages)) | 5 (0-5 (Death)) | 5 (0-5 (Death)) | 5 (0-5 (Death)) | 5 (0-5 (Death)) | 4 (6-10 (Severe damages)) | 5 (0-5 (Death)) | 5 (0-5 (Death)) | 5 (0-5 (Death)) | 5 (0-5 (Death)) | 5 (0-5 (Death)) | 5 (0-5 (Death)) | 4 (6-10 (Severe damages)) | 5 (0-5 (Death)) | 5 (0-5 (Death)) |

The next lines start with results.

| Inhibitory activity (%) Pea [8] | Compound | Injury Rice (rice) | Herbicidal effects Redroot pigweed (redroot pigweed [1]) | Herbicidal effects Johnsongrass (johnsongrass [2]) | Herbicidal effects Green foxtail (green foxtail [3]) | Herbicidal effects Barnyardgrass (barnyardgrass [4]) | Herbicidal effects Common lambsquarters (common lambsquarters [5]) | Herbicidal effects Foxtail meadow (foxtail meadow [6]) | Herbicidal effects Large crabgrass (large crabgrass [7]) | Herbicidal effects Redroot pigweed (redroot pigweed [9]) | Herbicidal effects Johnsongrass (johnsongrass [10]) | Herbicidal effects Green foxtail (green foxtail [11]) | Herbicidal effects Barnyardgrass (barnyardgrass [12]) | Herbicidal effects Common lambsquarters (common lambsquarters [13]) | Herbicidal effects Foxtail meadow (foxtail meadow [14]) | Herbicidal effects Large crabgrass (large crabgrass [15]) |
| --- | --- | --- | --- | --- | --- | --- | --- | --- | --- | --- | --- | --- | --- | --- | --- | --- |
| 0% | C=C(Cl)CON=Cc1ccccc1Oc1nc(OC)cc(OC)n1 [Compound No. 14] | 0 (91-100 (No damages)) | 4 (6-10 (Severe damages)) | 5 (0-5 (Death)) | 5 (0-5 (Death)) | 5 (0-5 (Death)) | 4 (6-10 (Severe damages)) | 5 (0-5 (Death)) | 5 (0-5 (Death)) | 4 (6-10 (Severe damages)) | 5 (0-5 (Death)) | 5 (0-5 (Death)) | 5 (0-5 (Death)) | 4 (6-10 (Severe damages)) | 5 (0-5 (Death)) | 5 (0-5 (Death)) |
| 0% | COc1cc(OC)nc(Oc2ccccc2C=NOCc2ccccc2)n1 [Compound No. 15] | 1 (71-90 (Slight damages)) | 5 (0-5 (Death)) | 5 (0-5 (Death)) | 5 (0-5 (Death)) | 5 (0-5 (Death)) | 5 (0-5 (Death)) | 4 (6-10 (Severe damages)) | 4 (6-10 (Severe damages)) | 4 (6-10 (Severe damages)) | 5 (0-5 (Death)) | 5 (0-5 (Death)) | 5 (0-5 (Death)) | 4 (6-10 (Severe damages)) | 5 (0-5 (Death)) | 4 (6-10 (Severe damages)) |
| 0% | COc1cc(OC)nc(Oc2ccccc2C=NOCc2ccc(Cl)cc2Cl)n1 [Compound No. 17] | 0 (91-100 (No damages)) | 4 (6-10 (Severe damages)) | 5 (0-5 (Death)) | 5 (0-5 (Death)) | 3 (11-40 (Medium damages)) | 4 (6-10 (Severe damages)) | 3 (11-40 (Medium damages)) | 3 (11-40 (Medium damages)) | 3 (11-40 (Medium damages)) | 3 (11-40 (Medium damages)) | 3 (11-40 (Medium damages)) | 3 (11-40 (Medium damages)) | 4 (6-10 (Severe damages)) | 3 (11-40 (Medium damages)) | 3 (11-40 (Medium damages)) |
